Measurements taken from patent US8802597B2, “Herbicidal pyrimidines” (E I du Pont de Nemours and Company, priority 2003, dated 2014).

Key:
Type in all cases: in vivo
[1] = tested on: Surinam grass (Brachiaria decumbens); assay: Test B pre/postemergence
Outline: (§1)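 Pre: compound (non-phytotoxic solvent + surfactant) applied to freshly planted seeds. Post: same formulation sprayed on 2–18 cm plants, 1- to 4-leaf. Readout: visual control rating 0–100 vs controls, 13–15 d, greenhouse.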

[2] = tested on: barnyardgrass (Echinochloa crus-galli); assay: Test B pre/postemergence
Outline: as §1

[3] = tested on: cocklebur (Xanthium strumarium); assay: Test B pre/postemergence
Outline: as §1

[4] = tested on: corn (Zea mays); assay: Test B pre/postemergence
Outline: as §1

[5] = tested on: crabgrass (Digitaria sanguinalis); assay: Test B pre/postemergence
Outline: as §1

[6] = tested on: giant foxtail (Setaria faberii); assay: Test B pre/postemergence
Outline: as §1

[7] = tested on: lambsquarters (Chenopodium album); assay: Test B pre/postemergence
Outline: as §1

[8] = tested on: morningglory (Ipomoea coccinea); assay: Test B pre/postemergence
Outline: as §1

[9] = tested on: pigweed (Amaranthus retroflexus); assay: Test B pre/postemergence
Outline: as §1

[10] = tested on: velvetleaf (Abutilon theophrasti); assay: Test B pre/postemergence
Outline: as §1

[11] = tested on: wheat (Triticum aestivum); assay: Test B pre/postemergence
Outline: as §1

[12] = tested on: blackgrass (Alopecurus myosuroides); assay: Test B postemergence
Outline: as §1

[13] = tested on: wild oat (Avena fatua); assay: Test B postemergence
Outline: as §1

[14] = tested on: barnyardgrass (Echinochloa crus-galli); assay: Test B flooded paddy test; settings: Flood, 1000 g ai/ha; scale 0 (no effect) to 100 (complete control)
Outline: (§2)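 Visual injury scoring (0 = no effect, 100 = complete control) versus controls made 13 to 15 days after treatment in the greenhouse. Test species were grown in flooded paddy to the 2-leaf stage: rice, barnyardgrass, umbrella sedge, duck salad.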

[15] = tested on: duck salad (Heteranthera limosa); assay: Test B flooded paddy test; settings: Flood, 1000 g ai/ha; scale 0 to 100
Outline: as §2

[16] = tested on: rice (Oryza sativa); assay: Test B flooded paddy test; settings: Flood, 1000 g ai/ha; scale 0 to 100
Outline: as §2

[17] = tested on: umbrella sedge (Cyperus difformis); assay: Test B flooded paddy test; settings: Flood, 1000 g ai/ha; scale 0 to 100
Outline: as §2

[18] = Postemergence, 125 g ai/ha, scale 0 to 100 (0 no effect, 100 complete control)
[19] = Postemergence, 500 g ai/ha, scale 0 to 100
[20] = Preemergence, 125 g ai/ha, scale 0 to 100 (0 no effect, 100 complete control)
[21] = Preemergence, 500 g ai/ha, scale 0 to 100 (0 no effect, 100 complete control)
[22] = 125 g ai/ha, scale 0 to 100 (0 no effect, 100 complete control)

`COCc1nc(C2CC2)nc(N)c1Br` [Compound 11] was tested, and the “Surinam Grass plant response rating” value [1, 18] was 20, the “Plant response rating, Surinam Grass” value [1, 19] was 50 and the “Plant response rating, Surinam Grass” value [1, 20] was 10. For the same compound, the “Surinam Grass plant response rating” value [1, 21] was 70, the “Barnyardgrass plant response rating” value [2, 18] was 20 and the “Plant response rating, Barnyardgrass” value [2, 19] was 90. For the same compound, the “Plant response rating, Barnyardgrass” value [2, 20] was 0, the “Barnyardgrass plant response rating” value [2, 21] was 10 and the “Cocklebur plant response rating” value [3, 18] was 80. The “Plant response rating, Cocklebur” value [3, 19] was 90, the “Plant response rating, Cocklebur” value [3, 20] was 80 and the “Cocklebur plant response rating” value [3, 21] was 90. For the same compound, the “Corn plant response rating” value [4, 18] was 0, the “Plant response rating, Corn” value [4, 19] was 0 and the “Plant response rating, Corn” value [4, 20] was 0. For the same compound, the “Corn plant response rating” value [4, 21] was 0, the “Crabgrass plant response rating” value [5, 18] was 30 and the “Plant response rating, Crabgrass” value [5, 19] was 70. For the same compound, the “Plant response rating, Crabgrass” value [5, 20] was 30, the “Crabgrass plant response rating” value [5, 21] was 80 and the “Foxtail, Giant plant response rating” value [6, 18] was 10. For the same compound, the “Plant response rating, Foxtail, Giant” value [6, 19] was 50, the “Plant response rating, Foxtail, Giant” value [6, 20] was 10 and the “Foxtail, Giant plant response rating” value [6, 21] was 70. For the same compound, the “Lambsquarters plant response rating” value [7, 18] was 90, the “Plant response rating, Lambsquarters” value [7, 19] was 100 and the “Plant response rating, Lambsquarters” value [7, 20] was 100. The “Lambsquarters plant response rating” value [7, 21] was 100, the “Morningglory plant response rating” value [8, 18] was 80 and the “Plant response rating, Morningglory” value [8, 19] was 100. For the same compound, the “Plant response rating, Morningglory” value [8, 20] was 80, the “Morningglory plant response rating” value [8, 21] was 90 and the “Pigweed plant response rating” value [9, 18] was 80. For the same compound, the “Plant response rating, Pigweed” value [9, 19] was 90, the “Plant response rating, Pigweed” value [9, 20] was 80 and the “Pigweed plant response rating” value [9, 21] was 90. The “Velvetleaf plant response rating” value [10, 18] was 60, the “Plant response rating, Velvetleaf” value [10, 19] was 80 and the “Plant response rating, Velvetleaf” value [10, 20] was 80. For the same compound, the “Velvetleaf plant response rating” value [10, 21] was 90, the “Wheat plant response rating” value [11, 18] was 0 and the “Plant response rating, Wheat” value [11, 19] was 40. The “Plant response rating, Wheat” value [11, 20] was 0, the “Wheat plant response rating” value [11, 21] was 50 and the “Blackgrass plant response rating” value [12, 22] was 20. The “Plant response rating, Blackgrass” value ([12]; 500 g ai/ha, scale 0 to 100) was 60, the “Oat, Wild plant response rating” value [13, 22] was 0 and the “Plant response rating, Oat, Wild” value ([13]; 500 g ai/ha, scale 0 to 100) was 10. For the same compound, the “Plant response rating, Barnyardgrass” value [14] was 0, the “Plant response rating, Ducksalad” value [15] was 70 and the “Plant response rating, Rice” value [16] was 0. For the same compound, the “Plant response rating, Sedge, Umbrella” value [17] was 20.
